Results from BindingDB's records for doi:10.1016/s0960-894x(98)00730-6 (University At Stony Brook, 1999).
Where a SMILES comes first, the peptide text is derived from it. [ ]: non-standard residue; d: D form. The star is where a group is joined. Biotinyl(3aR,4R,6aS) = O=C1N[C@@H]2[C@@H](CS[C@@H]2CCCCC(=O)*)N1; Phe(4-guanidino) = N=C(N)Nc1ccc(C[C@H](N)C(=O)O)cc1; Bpa = N[C@@H](Cc1ccc(C(=O)c2ccccc2)cc1)C(=O)O; X3 = O=C1N[C@@H]2CSC(CCCCC(=O)*)[C@@H]2N1; Phe(4-F) = N[C@@H](Cc1ccc(F)cc1)C(=O)O; X4 = O=C(c1ccccc1)c1ccc(CCC(=O)*)cc1; Orn = NCCC[C@H](N)C(=O)O; X1 = O=C(C=Cc1ccccc1)*; Propionyl = CCC(=O)*

Assay: Human Thrombin receptor 1 (PAR-1) antagonistic ability to inhibit SFLLRN-NH2 (2.7 uM)-induced platelet aggregation

SMILES	IC50
N=C(N)NCCC[C@H](NC(=O)[C@H](Cc1ccc(C(=O)c2ccccc2)cc1)NC(=O)[C@H](Cc1ccc(N=C(N)N)cc1)NC(=O)[C@H](Cc1ccc(F)cc1)NC(=O)C=Cc1ccccc1)C(=O)O [(S)-2-{(S)-3-(4-Benzoyl-phenyl)-2-[(S)-2-{(S)-3-(4-fluoro-phenyl)-2-[(E)-(3-phenyl-acryloyl)amino]-propionylamino}-3-(4-guanidino-phenyl)-propionylamino]-propionylamino}-5-guanidino-pentanoic acid] (X1-[Phe(4-F)][Phe(4-guanidino)][Bpa]R-OH)	6 µM
CC(C)C[C@H](NC(=O)[C@H](Cc1ccc(N=C(N)N)cc1)NC(=O)[C@H](Cc1ccc(F)cc1)NC(=O)C=Cc1ccccc1)C(=O)N[C@@H](CCCNC(=N)N)C(=O)O [(S)-2-{(S)-2-[(S)-2-{(S)-3-(4-Fluoro-phenyl)-2-[(E)-(3-phenyl-acryloyl)amino]-propionylamino}-3-(4-guanidino-phenyl)-propionylamino]-4-methyl-pentanoylamino}-5-guanidino-pentanoic acid] (X1-[Phe(4-F)][Phe(4-guanidino)]LR-OH)	0.3 µM
CCC(=O)NCCC[C@H](NC(=O)[C@H](Cc1ccc(C(=O)c2ccccc2)cc1)NC(=O)[C@H](CC(C)C)NC(=O)[C@H](Cc1ccc(N=C(N)N)cc1)NC(=O)[C@H](Cc1ccc(F)cc1)NC(=O)C=Cc1ccccc1)C(=O)O [(S)-2-((S)-3-(4-Benzoyl-phenyl)-2-{(S)-2-[(S)-2-{(S)-3-(4-fluoro-phenyl)-2-[(E)-(3-phenyl-acryloyl)amino]-propionylamino}-3-(4-guanidino-phenyl)-propionylamino]-4-methyl-pentanoylamino}-propionylamino)-5-propionylamino-pentanoic acid] (X1-[Phe(4-F)][Phe(4-guanidino)]L[Bpa][Orn](Propionyl)-OH)	9 µM
CC(C)C[C@H](NC(=O)[C@H](Cc1ccc(N=C(N)N)cc1)NC(=O)[C@H](Cc1ccc(F)cc1)NC(=O)C=Cc1ccccc1)C(=O)N[C@@H](Cc1ccc(C(=O)c2ccccc2)cc1)C(=O)N[C@@H](CCCNC(=O)CCCCC1SC[C@H]2NC(=O)N[C@@H]12)C(=O)O (stereo partly drawn) [(2S)-5-{5-[(3aR,6aS)-2-oxo-hexahydro-1H-thieno[3,4-d]imidazolidin-4-yl]pentanamido}-2-[(2S)-3-(4-benzoylphenyl)-2-[(2S)-2-[(2S)-3-(4-carbamimidamidophenyl)-2-[(2S)-3-(4-fluorophenyl)-2-[(2E)-3-phenylprop-2-enamido]propanamido]propanamido]-4-methylpentanamido]propanamido]pentanoic acid] (X1-[Phe(4-F)][Phe(4-guanidino)]L[Bpa][Orn](X3)-OH)	9.7 µM
N=C(N)NCCC[C@H](NC(=O)[C@H](Cc1ccc(C(=O)c2ccccc2)cc1)NC(=O)[C@H](Cc1ccc(N=C(N)N)cc1)NC(=O)[C@H](Cc1ccc(F)cc1)NC(=O)C=Cc1ccccc1)C(=O)N[C@@H](CCCNC(=O)CCCC[C@H]1SC[C@H]2NC(=O)N[C@H]21)C(=O)O [(2S)-5-{5-[(3aR,4R,6aS)-2-oxo-hexahydro-1H-thieno[3,4-d]imidazolidin-4-yl]pentanamido}-2-[(2S)-2-[(2S)-3-(4-benzoylphenyl)-2-[(2S)-3-(4-carbamimidamidophenyl)-2-[(2S)-3-(4-fluorophenyl)-2-[(2E)-3-phenylprop-2-enamido]propanamido]propanamido]propanamido]-5-carbamimidamidopentanamido]pentanoic acid] (X1-[Phe(4-F)][Phe(4-guanidino)][Bpa]R[Orn](Biotinyl(3aR,4R,6aS))-OH)	3.4 µM
CCC(=O)NCCC[C@H](NC(=O)[C@H](CCCNC(=N)N)NC(=O)[C@H](Cc1ccc(C(=O)c2ccccc2)cc1)NC(=O)[C@H](Cc1ccc(N=C(N)N)cc1)NC(=O)[C@H](Cc1ccc(F)cc1)NC(=O)C=Cc1ccccc1)C(=O)O [(S)-2-((S)-2-{(S)-3-(4-Benzoyl-phenyl)-2-[(S)-2-{(S)-3-(4-fluoro-phenyl)-2-[(E)-(3-phenyl-acryloyl)amino]-propionylamino}-3-(4-guanidino-phenyl)-propionylamino]-propionylamino}-5-guanidino-pentanoylamino)-5-propionylamino-pentanoic acid] (X1-[Phe(4-F)][Phe(4-guanidino)][Bpa]R[Orn](Propionyl)-OH)	3.1 µM
CC(C)C[C@H](NC(=O)[C@H](Cc1ccc(N=C(N)N)cc1)NC(=O)[C@H](Cc1ccc(F)cc1)NC(=O)C=Cc1ccccc1)C(=O)N[C@@H](Cc1ccc(C(=O)c2ccccc2)cc1)C(=O)O [(S)-3-(4-Benzoyl-phenyl)-2-{(S)-2-[(S)-2-{(S)-3-(4-fluoro-phenyl)-2-[(E)-(3-phenyl-acryloyl)amino]-propionylamino}-3-(4-guanidino-phenyl)-propionylamino]-4-methyl-pentanoylamino}-propionic acid] (X1-[Phe(4-F)][Phe(4-guanidino)]L[Bpa]-OH)	13 µM
CC(C)C[C@H](NC(=O)[C@H](Cc1ccc(N=C(N)N)cc1)NC(=O)[C@H](Cc1ccc(F)cc1)NC(=O)CCc1ccc(C(=O)c2ccccc2)cc1)C(=O)N[C@@H](CCCNC(=N)N)C(=O)O [(S)-2-{(S)-2-[(S)-2-[(S)-2-[3-(4-Benzoyl-phenyl)-propionylamino]-3-(4-fluoro-phenyl)-propionylamino]-3-(4-guanidino-phenyl)-propionylamino]-4-methyl-pentanoylamino}-5-guanidino-pentanoic acid] (X4-[Phe(4-F)][Phe(4-guanidino)]LR-OH)	3.1 µM
